Experimental data from patent US20240166664A1, “TRIHETEROCYCLIC COMPOUND, PREPARATION METHOD THEREFOR, AND APPLICATION THEREOF” (SHANGHAI APEIRON THERAPEUTICS COMPANY LIMITED, priority 2021, published 2024).

Legend:
[1] = target: T1, PARP7 (Homo sapiens, UniProt Q7Z3E1); assay: Test of inhibitory activity against PARP7 enzyme (PARP7 FLAG-tag, Probe A, time-resolved fluorescence); type: biochemical; conditions: PARP7 12 nM, Probe A 2 nM, 1 hr room temperature
T1 construct: purchased BPS 80527
T1 sequence (Q7Z3E1 1-657): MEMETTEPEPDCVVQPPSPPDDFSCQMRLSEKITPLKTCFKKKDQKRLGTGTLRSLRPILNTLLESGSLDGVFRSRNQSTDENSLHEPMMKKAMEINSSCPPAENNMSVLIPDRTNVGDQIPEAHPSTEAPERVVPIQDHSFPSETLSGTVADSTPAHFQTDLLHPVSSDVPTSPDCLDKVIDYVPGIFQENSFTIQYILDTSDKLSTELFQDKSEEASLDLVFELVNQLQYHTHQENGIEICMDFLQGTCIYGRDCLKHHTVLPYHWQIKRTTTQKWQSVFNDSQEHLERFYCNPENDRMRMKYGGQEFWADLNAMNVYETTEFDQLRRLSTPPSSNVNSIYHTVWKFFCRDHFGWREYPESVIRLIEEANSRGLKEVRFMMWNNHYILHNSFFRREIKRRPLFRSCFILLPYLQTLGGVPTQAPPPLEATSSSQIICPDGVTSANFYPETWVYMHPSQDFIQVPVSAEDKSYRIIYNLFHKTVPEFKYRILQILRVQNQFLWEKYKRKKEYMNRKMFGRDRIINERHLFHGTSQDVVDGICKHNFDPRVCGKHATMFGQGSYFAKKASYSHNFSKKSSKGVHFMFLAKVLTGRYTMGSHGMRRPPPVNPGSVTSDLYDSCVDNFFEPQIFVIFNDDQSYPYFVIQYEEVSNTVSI

[2] = system: NCI-H1373 cells; assay: Cell proliferation inhibition assay (CTG method); type: cell-based, human; conditions: Homo sapiens, NCI-H1373, 144 h, NCI-H1373 cells, 6 days incubation, CTG method; read-out: IC50 (nM) for NCI-H1373 cell viability
[3] = system: tumor; conditions: preclinical experimental data; cited from earlier work

IC50 [1] | IC50 [2] | SMILES | anti-tumor growth effect [3] | tumor-specific adaptive immune memory [3]
< 10 nM | 100 to 500 nM | C[C@@H](COCCC(=O)N1CCN2c3ncc(C(F)(F)F)c(C#N)c3OC[C@H]2C1)Nc1cn[nH]c(=O)c1C(F)(F)F [Compound 51, (R)-8-(3-((S)-2-((6-oxo-5-(trifluoromethyl)-1,6-dihydropyridazin-4-yl)amino)propoxy)propionyl)-3-(trifluoromethyl)-6,6a, 7,8,9, 10-hexahydropyrazino[1,2-d]pyrido[3,2-b][1, 4]oxazinane-4-carbonitrile] | – | –
< 10 nM | < 100 nM | C[C@@H](COCCC(=O)N1CCN2c3ncc(C(F)(F)F)nc3N(C)C(=O)[C@@H]2C1)Nc1cn[nH]c(=O)c1C(F)(F)F [Compound 58, (S)-5-methyl-8-(3-((S)-2-((6-oxo-5-(trifluoromethyl)-1,6-dihydropyridazin-4-yl)amino)propoxy)propionyl)-3-(trifluoromethyl)-7,8,9, 10-tetrahydro-5H-bipyrazino[1,2-a:2′, 3′-e]pyrazin-6(6aH)-one] | – | –
< 10 nM | 500 to 5000 nM | C[C@@H](COCCC(=O)N1CCN2c3ncc(C(F)(F)F)cc3CS(=O)(=O)C[C@H]2C1)Nc1cn[nH]c(=O)c1C(F)(F)F [Compound 22] | – | –
< 10 nM | 500 to 5000 nM | C[C@@H](COCCC(=O)N1CCN2c3ncc(C(F)(F)F)cc3CN(C#N)C[C@H]2C1)Nc1cn[nH]c(=O)c1C(F)(F)F [Compound 11] | – | –
< 10 nM | < 100 nM | CC(COCC(O)C(=O)N1CCN2c3ncc(C(F)(F)F)cc3COCC2C1)Nc1cn[nH]c(=O)c1C(F)(F)F (single isomer, unassigned) [Compound 55] | – | –
< 10 nM | < 100 nM | C[C@@H](COC[C@H](O)C(=O)N1CCN2c3ncc(C(F)(F)F)cc3C=C[C@@H]2C1)Nc1cn[nH]c(=O)c1C(F)(F)F [Compound 71] | – | –
< 10 nM | < 100 nM | C[C@@H](COCCC(=O)N1CCN2c3ncc(C(F)(F)F)cc3NCC[C@H]2C1)Nc1cn[nH]c(=O)c1C(F)(F)F [Compound 35, 5-(((S)-1-(3-oxo-3-((S)-3-(trifluoromethyl)-6,7,7a, 8,10,11-hexahydropyrazino[1,2-d]pyrido[3,2-b][1,4]diazepine-9(5H)-yl)propoxy)prop-2-yl)amino)-4-(trifluoromethyl)pyridazin-3(2H)-one] | – | –
< 10 nM | 100 to 500 nM | C[C@@H](COCCC(=O)N1CCN2c3ncc(C#N)cc3N(C)C(=O)[C@@H]2C1)Nc1cn[nH]c(=O)c1C(F)(F)F [Compound 53] | – | –
– | – | C[C@@H](COCCC(=O)N1CCN(c2ncc(C(F)(F)F)cn2)CC1)Nc1cn[nH]c(=O)c1C(F)(F)F [RBN-2397] | potent anti-tumor growth effect increasing in a dose-dependent manner | induces tumor-specific adaptive immune memory
< 10 nM | 100 to 500 nM | C[C@@H](COCCC(=O)N1CCN2c3ncc(C(F)(F)F)nc3OC[C@H]2C1)Nc1cn[nH]c(=O)c1C(F)(F)F [Compound 14] | – | –
> 500 nM | > 5000 nM | C[C@@H](COCCC(=O)N1CCN2c3ncc(F)cc3COC[C@H]2C1)Nc1cn[nH]c(=O)c1C(F)(F)F [Compound 20, (R)-9-(3-((S)-2-((6-oxo-5-(trifluoromethyl)-1,6-dihydropyridazin-4-yl)amino)propoxy)propionyl)-3-fluoro-7,7a, 8,9,10,11-hexahydro-5H-pyrazino[2,1-c]pyrido[2,3-e][1,4]oxazin-5-one] | – | –
< 10 nM | 100 to 500 nM | C[C@@H](COCCC(=O)N1CCN2c3ncc(C(F)(F)F)cc3CN(C)C[C@H]2C1)Nc1cn[nH]c(=O)c1C(F)(F)F [Compound 23, 5-(((S)-1-(3-((S)-6-methyl-3-(trifluoromethyl)-6,7,7a, 8,10,11-octahydropyrazino[1,2-a]pyrido[3,2-f][1,4]Diazepin-9(5H)-yl)-3-propoxy)prop-2-yl)amino)-4-(trifluoromethyl) pyridazin-3(2H)-one] | – | –
< 10 nM | < 100 nM | C[C@@H](COCCC(=O)N1CCN2c3ncc(C(F)(F)F)cc3CSC[C@H]2C1)Nc1cn[nH]c(=O)c1C(F)(F)F [Compound 12, 5-(((S)-1-(3-oxo-3-((R)-3-(trifluoromethyl)-7a, 8,10,11-tetrahydro-5H-pyrazino[2,1-c]pyrido[2,3-e][1,4]thiazin-9(7H)-yl)propoxy)prop-2-yl)amino)-4-(trifluoromethyl)pyridazin-3(2H)-one] | – | –
< 10 nM | 500 to 5000 nM | Cc1nc2c(cc1C(F)(F)F)COC[C@H]1CN(C(=O)CCOC[C@H](C)Nc3cn[nH]c(=O)c3C(F)(F)F)CCN21 [Compound 31] | – | –
10 to 100 nM | > 5000 nM | C[C@@H](COCCC(=O)N1CCN2C(=O)c3ncc(C(F)(F)F)cc3OC[C@@H]2C1)Nc1cn[nH]c(=O)c1C(F)(F)F [Compound 17, (S)-8-(3-((S)-2-((6-oxo-5-(trifluoromethyl)-1,6-dihydropyridazin-4-yl)amino)propoxy)propionyl)-3-(trifluoromethyl)-6,6a, 7,8,9,10-hexahydro-12H-pyrazino[2,1-c]pyrido[2,3-f][1,4]oxazepin-12-one] | – | –
< 10 nM | 100 to 500 nM | C[C@@H]1CN2c3ncc(C(F)(F)F)cc3COC[C@H]2CN1C(=O)CCOC[C@H](C)Nc1cn[nH]c(=O)c1C(F)(F)F [Compound 25, 5-(((S)-1-(3-((6aR,9R)-9-methyl-3-(trifluoromethyl)-6a, 7,9,10-tetrahydropyrazino[1,2-d]pyrido[3,2-b][1,4]oxazin-8(6H)-yl)-3-oxypropoxy)prop-2-yl)amino)-4-(trifluoromethyl)pyridazin-3(2H)-one] | – | –
< 10 nM | 100 to 500 nM | C[C@@H](COCCC(=O)N1CCN2c3ncc(C(F)(F)F)cc3CNC[C@H]2C1)Nc1cn[nH]c(=O)c1C(F)(F)F [Compound 10] | – | –
< 10 nM | < 100 nM | C[C@@H](COC[C@@H](F)C(=O)N1CCN2c3ncc(C(F)(F)F)cc3N(C)C(=O)[C@@H]2C1)Nc1cn[nH]c(=O)c1C(F)(F)F [Compound 65, (S)-8-((R)-2-fluoro-3-((S)-2-((6-oxo-5-(trifluoromethyl)-1,6-dihydropyridazin-4-yl)amino)propoxy)propionyl)-5-methyl-3-(trifluoromethyl)-7,8,9, 10-tetrahydro-5H-pyrazino[1,2-a]pyrido[3,2-e]pyrazin-6(6aH)-one] | – | –
< 10 nM | 100 to 500 nM | C[C@@H](COCCC(=O)N1CCN2c3ncc(C(F)(F)F)cc3N(C3CC3)C(=O)[C@@H]2C1)Nc1cn[nH]c(=O)c1C(F)(F)F [Compound 30, (s)-5-cyclopropyl-8-(3-((S)-2-((6-oxo-5-(trifluoromethyl)-1,6-dihydropyridazin-4-yl)amino)propoxy)propionyl)-3-(trifluoromethyl)-7,8,9,10-tetrahydro-5H-pyrazino[1,2-a]pyrido[3,2-e]pyrazin-6(6aH)-one] | – | –
10 to 100 nM | > 5000 nM | C[C@@H](COCCC(=O)N1CCN2C(=O)c3ncc(C(F)(F)F)cc3OC[C@H]2C1)Nc1cn[nH]c(=O)c1C(F)(F)F [Compound 16, (R)-8-(3-((S)-2-((6-oxo-5-(trifluoromethyl)-1,6-dihydropyridazin-4-yl)amino)propoxy)propionyl)-3-(trifluoromethyl)-6,6a, 7,8,9,10-hexahydro-12H-pyrazino[2,1-c]pyrido[2,3-f][1,4]oxazepin-12-one] | – | –
< 10 nM | < 100 nM | C[C@@H](COCCC(=O)N1CCN2c3ncc(C(F)(F)F)cc3CC[C@H]2C1)Nc1cn[nH]c(=O)c1C(F)(F)F (single isomer, unassigned) [Compound 45] | – | –
< 10 nM | 500 to 5000 nM | C[C@@H](COCCC(=O)N1CCN2c3ncc(C(F)(F)F)cc3NC[C@H]2C1)Nc1cn[nH]c(=O)c1C(F)(F)F [Compound 9] | – | –
< 10 nM | < 100 nM | C[C@@H](COC[C@H](F)C(=O)N1CCN2c3ncc(C(F)(F)F)cc3C=C[C@@H]2C1)Nc1cn[nH]c(=O)c1C(F)(F)F [Compound 74] | – | –
